Test results reported in ChEMBL document CHEMBL5154644, “Design, Synthesis, and Structure-Activity Relationship Optimization of Pyrazolopyrimidine Amide Inhibitors of Phosphoinositide 3-Kinase γ (PI3Kγ)” (J Med Chem, 2022).

Tested on: not listed separately
Experiment: Metabolic stability in rat hepatocyte assessed as intrinsic clearance per 10^8 cells at 0.5 uM by LC-MS/MS analysis
Assay type: ADME, cell-based
Settings: hepatocytes

Row | hepatocyte intrinsic clearance | SMILES
1 | 4.59 µL/min | Cc1cc(-c2ccn3nc(N)c(C(=O)NC4COC4)c3n2)cc2c1C(=O)N([C@@H](C)C1CC1)C2
2 | 1.31 µL/min | Cc1cc(-c2ccn3nc(N)c(C(=O)N[C@@H](CO)C4CC4)c3n2)cc2c1C(=O)N([C@@H](C)C1CC1)C2
3 | < 1.2 µL/min | CCS(=O)(=O)c1cc(-c2ccn3nc(N)c(C(=O)NC4CC4)c3n2)cc2c1C(=O)N([C@@H](C)C1CC1)C2
4 | 24.6 µL/min | Cc1cc(-c2ccn3nc(N)c(C(=O)N[C@@H]4CC[C@@H](O)C4)c3n2)cc2c1C(=O)N([C@@H](C)C1CC1)C2
5 | < 1.2 µL/min | C[C@@H](C1CC1)N1Cc2cc(-c3ccn4nc(N)c(C(=O)NC5CC5)c4n3)cc(C(F)(F)F)c2C1=O

Species: Homo sapiens
Experiment: Selectivity ratio of IC50 for inhibition of PI3Kalpha (unknown origin) to IC50 for inhibition of PI3Kgamma (unknown origin)
Settings: not given

Row | Ratio IC50 | SMILES
6 | 464 | Cc1cc(-c2ccn3nc(N)c(C(=O)NC4COC4)c3n2)cc2c1C(=O)N([C@@H](C)C1CC1)C2
7 | > 3440 | Cc1cc(-c2ccn3nc(N)c(C(=O)N[C@@H](CO)C4CC4)c3n2)cc2c1C(=O)N([C@@H](C)C1CC1)C2
8 | 170 | CCS(=O)(=O)c1cc(-c2ccn3nc(N)c(C(=O)NC4CC4)c3n2)cc2c1C(=O)N([C@@H](C)C1CC1)C2
9 | 33 | Cc1cc(-c2ccn3nc(N)c(C(=O)N[C@@H]4CC[C@@H](O)C4)c3n2)cc2c1C(=O)N([C@@H](C)C1CC1)C2
10 | 443 | C[C@@H](C1CC1)N1Cc2cc(-c3ccn4nc(N)c(C(=O)NC5CC5)c4n3)cc(C(F)(F)F)c2C1=O

Molecular target: T1, Phosphatidylinositol 4,5-bisphosphate 3-kinase catalytic subunit gamma isoform (Homo sapiens, UniProt P48736)
T1 sequence (P48736 whole entry, canonical isoform): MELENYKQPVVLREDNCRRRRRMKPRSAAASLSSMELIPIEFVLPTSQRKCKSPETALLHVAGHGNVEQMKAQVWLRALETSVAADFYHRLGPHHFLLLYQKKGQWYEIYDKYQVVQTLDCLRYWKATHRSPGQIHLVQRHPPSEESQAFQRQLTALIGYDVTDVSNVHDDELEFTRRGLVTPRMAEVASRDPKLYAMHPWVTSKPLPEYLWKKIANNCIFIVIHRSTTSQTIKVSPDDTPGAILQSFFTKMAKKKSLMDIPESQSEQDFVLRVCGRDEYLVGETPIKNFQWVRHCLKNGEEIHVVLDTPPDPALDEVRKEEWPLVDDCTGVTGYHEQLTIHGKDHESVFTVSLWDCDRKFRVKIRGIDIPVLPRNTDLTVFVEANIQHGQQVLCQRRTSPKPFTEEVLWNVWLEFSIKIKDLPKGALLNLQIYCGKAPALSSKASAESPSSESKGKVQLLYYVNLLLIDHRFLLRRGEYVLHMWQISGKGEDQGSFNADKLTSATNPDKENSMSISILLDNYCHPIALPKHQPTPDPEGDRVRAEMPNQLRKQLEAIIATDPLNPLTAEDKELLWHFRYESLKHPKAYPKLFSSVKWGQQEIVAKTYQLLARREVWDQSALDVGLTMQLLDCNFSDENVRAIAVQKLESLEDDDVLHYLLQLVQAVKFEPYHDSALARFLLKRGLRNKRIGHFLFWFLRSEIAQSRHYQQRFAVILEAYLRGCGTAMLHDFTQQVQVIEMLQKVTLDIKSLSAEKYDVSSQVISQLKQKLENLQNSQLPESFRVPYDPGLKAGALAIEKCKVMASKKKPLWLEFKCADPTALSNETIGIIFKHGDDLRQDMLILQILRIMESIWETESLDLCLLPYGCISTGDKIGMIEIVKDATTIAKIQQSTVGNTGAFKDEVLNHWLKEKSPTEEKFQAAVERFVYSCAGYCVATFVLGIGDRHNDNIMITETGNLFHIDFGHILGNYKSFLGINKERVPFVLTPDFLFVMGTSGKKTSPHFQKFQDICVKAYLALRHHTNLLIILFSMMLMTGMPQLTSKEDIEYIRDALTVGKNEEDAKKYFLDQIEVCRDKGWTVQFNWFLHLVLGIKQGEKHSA
Experiment: Inhibition of PI3Kgamma (unknown origin) in […] stimulated human THP-1 cells assessed as reduction in Akt phosphorylation level at Ser473 residue preincubated for 60 mins followed by rhMCP-1 stimulation and measured after 2 mins by AlphaLisa assay
Assay type: cell-based
Settings: not given

Row | IC50 | SMILES
11 | 156 nM | Cc1cc(-c2ccn3nc(N)c(C(=O)NC4COC4)c3n2)cc2c1C(=O)N([C@@H](C)C1CC1)C2
12 | 133 nM | Cc1cc(-c2ccn3nc(N)c(C(=O)N[C@@H](CO)C4CC4)c3n2)cc2c1C(=O)N([C@@H](C)C1CC1)C2
13 | 67 nM | CCS(=O)(=O)c1cc(-c2ccn3nc(N)c(C(=O)NC4CC4)c3n2)cc2c1C(=O)N([C@@H](C)C1CC1)C2
14 | 82 nM | Cc1cc(-c2ccn3nc(N)c(C(=O)N[C@@H]4CC[C@@H](O)C4)c3n2)cc2c1C(=O)N([C@@H](C)C1CC1)C2
15 | 103 nM | C[C@@H](C1CC1)N1Cc2cc(-c3ccn4nc(N)c(C(=O)NC5CC5)c4n3)cc(C(F)(F)F)c2C1=O

Molecular target: T1, Phosphatidylinositol 4,5-bisphosphate 3-kinase catalytic subunit gamma isoform
Experiment: Inhibition of PI3Kgamma (unknown origin) using PIP2 as substrate preincubated for 1 hr followed by substrate addition and measured after 60 mins in presence of ATP by ADP-glo assay
Settings: not given

Row | IC50 | SMILES
16 | 1.8 nM | Cc1cc(-c2ccn3nc(N)c(C(=O)NC4COC4)c3n2)cc2c1C(=O)N([C@@H](C)C1CC1)C2
17 | 2.9 nM | Cc1cc(-c2ccn3nc(N)c(C(=O)N[C@@H](CO)C4CC4)c3n2)cc2c1C(=O)N([C@@H](C)C1CC1)C2
18 | 4.8 nM | CCS(=O)(=O)c1cc(-c2ccn3nc(N)c(C(=O)NC4CC4)c3n2)cc2c1C(=O)N([C@@H](C)C1CC1)C2
19 | 4.2 nM | Cc1cc(-c2ccn3nc(N)c(C(=O)N[C@@H]4CC[C@@H](O)C4)c3n2)cc2c1C(=O)N([C@@H](C)C1CC1)C2
20 | 3.6 nM | C[C@@H](C1CC1)N1Cc2cc(-c3ccn4nc(N)c(C(=O)NC5CC5)c4n3)cc(C(F)(F)F)c2C1=O

Tested on: not listed separately
Experiment: Hepatic clearance in Sprague-Dawley rat by LC-MS/MS analysis
Assay type: ADME
Settings: in vivo

Row | CLH | SMILES
21 | 33 mL/min/kg | Cc1cc(-c2ccn3nc(N)c(C(=O)NC4COC4)c3n2)cc2c1C(=O)N([C@@H](C)C1CC1)C2
22 | 8.3 mL/min/kg | Cc1cc(-c2ccn3nc(N)c(C(=O)N[C@@H](CO)C4CC4)c3n2)cc2c1C(=O)N([C@@H](C)C1CC1)C2
23 | 68.3 mL/min/kg | CCS(=O)(=O)c1cc(-c2ccn3nc(N)c(C(=O)NC4CC4)c3n2)cc2c1C(=O)N([C@@H](C)C1CC1)C2
24 | 71.7 mL/min/kg | Cc1cc(-c2ccn3nc(N)c(C(=O)N[C@@H]4CC[C@@H](O)C4)c3n2)cc2c1C(=O)N([C@@H](C)C1CC1)C2
25 | 5 mL/min/kg | C[C@@H](C1CC1)N1Cc2cc(-c3ccn4nc(N)c(C(=O)NC5CC5)c4n3)cc(C(F)(F)F)c2C1=O

Molecular target: Phosphatidylinositol 4,5-bisphosphate 3-kinase catalytic subunit alpha isoform (Homo sapiens, UniProt P42336)
Sequence (P42336 whole entry, canonical isoform): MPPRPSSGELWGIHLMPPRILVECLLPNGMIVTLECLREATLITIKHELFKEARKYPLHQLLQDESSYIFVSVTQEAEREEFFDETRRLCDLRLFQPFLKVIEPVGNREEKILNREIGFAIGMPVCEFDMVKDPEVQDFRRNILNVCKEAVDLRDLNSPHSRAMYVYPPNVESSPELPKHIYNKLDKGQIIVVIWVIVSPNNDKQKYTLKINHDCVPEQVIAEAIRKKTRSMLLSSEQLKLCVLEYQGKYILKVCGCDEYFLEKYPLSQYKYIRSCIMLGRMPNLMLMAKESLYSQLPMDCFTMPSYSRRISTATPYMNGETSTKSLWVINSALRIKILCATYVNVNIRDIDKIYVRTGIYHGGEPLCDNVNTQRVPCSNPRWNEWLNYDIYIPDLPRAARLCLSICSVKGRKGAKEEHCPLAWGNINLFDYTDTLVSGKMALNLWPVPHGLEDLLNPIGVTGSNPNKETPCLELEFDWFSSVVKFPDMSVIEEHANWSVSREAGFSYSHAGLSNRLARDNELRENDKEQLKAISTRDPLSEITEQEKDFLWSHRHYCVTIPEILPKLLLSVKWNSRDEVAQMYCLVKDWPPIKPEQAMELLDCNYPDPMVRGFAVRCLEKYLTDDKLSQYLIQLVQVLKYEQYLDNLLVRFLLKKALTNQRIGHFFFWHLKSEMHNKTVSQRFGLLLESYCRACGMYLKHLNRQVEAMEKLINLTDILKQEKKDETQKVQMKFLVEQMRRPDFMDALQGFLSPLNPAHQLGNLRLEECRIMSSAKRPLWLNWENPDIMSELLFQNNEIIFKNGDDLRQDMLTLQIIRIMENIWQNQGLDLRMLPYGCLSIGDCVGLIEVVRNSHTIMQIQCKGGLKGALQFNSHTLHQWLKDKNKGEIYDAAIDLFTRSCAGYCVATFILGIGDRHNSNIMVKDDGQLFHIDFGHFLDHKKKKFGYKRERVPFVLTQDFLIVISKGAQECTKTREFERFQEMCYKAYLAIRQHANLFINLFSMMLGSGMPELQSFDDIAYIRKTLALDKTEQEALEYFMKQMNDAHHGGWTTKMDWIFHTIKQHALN
Experiment: Inhibition of PI3Kalpha (unknown origin) using PIP2 as substrate preincubated for 1 hr followed by substrate addition and measured after 60 mins in presence of ATP by ADP-glo assay
Settings: not given

Row | IC50 | SMILES
26 | 833 nM | Cc1cc(-c2ccn3nc(N)c(C(=O)NC4COC4)c3n2)cc2c1C(=O)N([C@@H](C)C1CC1)C2
27 | > 10000 nM | Cc1cc(-c2ccn3nc(N)c(C(=O)N[C@@H](CO)C4CC4)c3n2)cc2c1C(=O)N([C@@H](C)C1CC1)C2
28 | 808 nM | CCS(=O)(=O)c1cc(-c2ccn3nc(N)c(C(=O)NC4CC4)c3n2)cc2c1C(=O)N([C@@H](C)C1CC1)C2
29 | 140 nM | Cc1cc(-c2ccn3nc(N)c(C(=O)N[C@@H]4CC[C@@H](O)C4)c3n2)cc2c1C(=O)N([C@@H](C)C1CC1)C2
30 | 1580 nM | C[C@@H](C1CC1)N1Cc2cc(-c3ccn4nc(N)c(C(=O)NC5CC5)c4n3)cc(C(F)(F)F)c2C1=O

Tested on: not listed separately
Experiment: Metabolic stability in human hepatocytes assessed as intrinsic clearance per 10^6 cells at 0.5 uM by LC-MS/MS analysis
Assay type: ADME, cell-based, Hepatocyte
Settings: read-out: CLH

Row | hepatocyte CLint at 0.5 µM | SMILES
31 | 6.21 µL/min/1e6 cells | Cc1cc(-c2ccn3nc(N)c(C(=O)NC4COC4)c3n2)cc2c1C(=O)N([C@@H](C)C1CC1)C2
32 | 2.03 µL/min/1e6 cells | Cc1cc(-c2ccn3nc(N)c(C(=O)N[C@@H](CO)C4CC4)c3n2)cc2c1C(=O)N([C@@H](C)C1CC1)C2
33 | 2.03 µL/min/1e6 cells | CCS(=O)(=O)c1cc(-c2ccn3nc(N)c(C(=O)NC4CC4)c3n2)cc2c1C(=O)N([C@@H](C)C1CC1)C2
34 | 3.26 µL/min/1e6 cells | Cc1cc(-c2ccn3nc(N)c(C(=O)N[C@@H]4CC[C@@H](O)C4)c3n2)cc2c1C(=O)N([C@@H](C)C1CC1)C2
35 | < 1.2 µL/min/1e6 cells | C[C@@H](C1CC1)N1Cc2cc(-c3ccn4nc(N)c(C(=O)NC5CC5)c4n3)cc(C(F)(F)F)c2C1=O

Molecular target: CYP3A4 (Homo sapiens, UniProt P08684)
Sequence (P08684 whole entry): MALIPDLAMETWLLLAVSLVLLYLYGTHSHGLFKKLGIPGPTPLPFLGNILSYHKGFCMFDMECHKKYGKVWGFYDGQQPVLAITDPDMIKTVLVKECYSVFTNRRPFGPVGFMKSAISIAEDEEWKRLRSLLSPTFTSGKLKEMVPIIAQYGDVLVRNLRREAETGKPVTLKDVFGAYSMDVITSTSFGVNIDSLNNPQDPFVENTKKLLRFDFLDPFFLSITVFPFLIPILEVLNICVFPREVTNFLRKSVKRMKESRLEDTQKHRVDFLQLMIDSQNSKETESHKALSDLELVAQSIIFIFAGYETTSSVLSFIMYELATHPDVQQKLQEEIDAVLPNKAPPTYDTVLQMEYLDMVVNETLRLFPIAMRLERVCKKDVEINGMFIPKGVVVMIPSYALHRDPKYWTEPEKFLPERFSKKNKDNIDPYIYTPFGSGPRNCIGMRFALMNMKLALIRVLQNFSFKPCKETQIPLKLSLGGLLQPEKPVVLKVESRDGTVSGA
Experiment: in vitro
Settings: human liver microsomes, probe midazolam
Description: Time dependent inhibition of CYP3A4 in human liver microsomes at 10 uM using midazolam as substrate preincubated for 30 mins in presence of NADPH by LC/MS/MS analysis relative to control

Row | inhibition at 30 min, 10 µM | SMILES
36 | 12% | Cc1cc(-c2ccn3nc(N)c(C(=O)NC4COC4)c3n2)cc2c1C(=O)N([C@@H](C)C1CC1)C2
37 | 7% | Cc1cc(-c2ccn3nc(N)c(C(=O)N[C@@H](CO)C4CC4)c3n2)cc2c1C(=O)N([C@@H](C)C1CC1)C2
38 | 16% | CCS(=O)(=O)c1cc(-c2ccn3nc(N)c(C(=O)NC4CC4)c3n2)cc2c1C(=O)N([C@@H](C)C1CC1)C2
39 | 14% | Cc1cc(-c2ccn3nc(N)c(C(=O)N[C@@H]4CC[C@@H](O)C4)c3n2)cc2c1C(=O)N([C@@H](C)C1CC1)C2
40 | 7% | C[C@@H](C1CC1)N1Cc2cc(-c3ccn4nc(N)c(C(=O)NC5CC5)c4n3)cc(C(F)(F)F)c2C1=O

Molecular target: T2, Phosphatidylinositol 4,5-bisphosphate 3-kinase catalytic subunit delta isoform (Homo sapiens, UniProt O00329)
T2 sequence (O00329 whole entry): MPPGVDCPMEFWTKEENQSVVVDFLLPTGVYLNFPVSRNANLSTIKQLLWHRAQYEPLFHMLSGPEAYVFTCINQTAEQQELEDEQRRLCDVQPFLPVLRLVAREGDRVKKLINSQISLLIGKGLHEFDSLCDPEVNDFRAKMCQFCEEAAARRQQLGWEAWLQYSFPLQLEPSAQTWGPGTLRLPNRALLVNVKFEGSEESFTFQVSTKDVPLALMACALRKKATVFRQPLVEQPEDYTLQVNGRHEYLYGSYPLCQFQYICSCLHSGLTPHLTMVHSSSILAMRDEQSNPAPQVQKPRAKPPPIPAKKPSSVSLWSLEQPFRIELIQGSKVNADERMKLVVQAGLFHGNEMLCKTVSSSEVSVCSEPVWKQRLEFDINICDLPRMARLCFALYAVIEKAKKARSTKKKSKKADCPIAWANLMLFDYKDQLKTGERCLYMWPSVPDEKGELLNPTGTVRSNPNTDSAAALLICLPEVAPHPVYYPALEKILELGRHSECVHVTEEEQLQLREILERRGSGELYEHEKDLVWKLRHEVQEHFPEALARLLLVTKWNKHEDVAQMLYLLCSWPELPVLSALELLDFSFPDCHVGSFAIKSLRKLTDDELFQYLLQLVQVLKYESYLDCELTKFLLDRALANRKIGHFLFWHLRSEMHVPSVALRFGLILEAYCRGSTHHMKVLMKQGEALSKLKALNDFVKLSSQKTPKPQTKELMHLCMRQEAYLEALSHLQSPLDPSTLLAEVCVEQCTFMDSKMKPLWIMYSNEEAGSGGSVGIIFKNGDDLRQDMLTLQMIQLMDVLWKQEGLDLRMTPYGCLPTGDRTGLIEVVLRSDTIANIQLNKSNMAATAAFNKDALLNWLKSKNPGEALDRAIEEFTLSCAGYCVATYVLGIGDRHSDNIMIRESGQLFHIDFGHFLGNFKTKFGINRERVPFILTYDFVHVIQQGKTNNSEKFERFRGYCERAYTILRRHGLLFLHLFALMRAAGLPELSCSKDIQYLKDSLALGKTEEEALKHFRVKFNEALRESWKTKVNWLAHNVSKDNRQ
Experiment: Inhibition of PI3Kdelta (unknown origin) using PIP2 as substrate preincubated for 1 hr followed by substrate addition and measured after 60 mins in presence of ATP by ADP-glo assay
Settings: not given

Row | IC50 | SMILES
41 | 698 nM | Cc1cc(-c2ccn3nc(N)c(C(=O)NC4COC4)c3n2)cc2c1C(=O)N([C@@H](C)C1CC1)C2
42 | > 10000 nM | Cc1cc(-c2ccn3nc(N)c(C(=O)N[C@@H](CO)C4CC4)c3n2)cc2c1C(=O)N([C@@H](C)C1CC1)C2
43 | 835 nM | CCS(=O)(=O)c1cc(-c2ccn3nc(N)c(C(=O)NC4CC4)c3n2)cc2c1C(=O)N([C@@H](C)C1CC1)C2
44 | 123 nM | Cc1cc(-c2ccn3nc(N)c(C(=O)N[C@@H]4CC[C@@H](O)C4)c3n2)cc2c1C(=O)N([C@@H](C)C1CC1)C2
45 | 1950 nM | C[C@@H](C1CC1)N1Cc2cc(-c3ccn4nc(N)c(C(=O)NC5CC5)c4n3)cc(C(F)(F)F)c2C1=O

Species: Homo sapiens
Experiment: Selectivity ratio of IC50 for inhibition of PI3Kdelta (unknown origin) to IC50 for inhibition of PI3Kgamma (unknown origin)
Settings: not given

Row | Ratio IC50 | SMILES
46 | 388 | Cc1cc(-c2ccn3nc(N)c(C(=O)NC4COC4)c3n2)cc2c1C(=O)N([C@@H](C)C1CC1)C2
47 | > 3440 | Cc1cc(-c2ccn3nc(N)c(C(=O)N[C@@H](CO)C4CC4)c3n2)cc2c1C(=O)N([C@@H](C)C1CC1)C2
48 | 175 | CCS(=O)(=O)c1cc(-c2ccn3nc(N)c(C(=O)NC4CC4)c3n2)cc2c1C(=O)N([C@@H](C)C1CC1)C2
49 | 29 | Cc1cc(-c2ccn3nc(N)c(C(=O)N[C@@H]4CC[C@@H](O)C4)c3n2)cc2c1C(=O)N([C@@H](C)C1CC1)C2
50 | 547 | C[C@@H](C1CC1)N1Cc2cc(-c3ccn4nc(N)c(C(=O)NC5CC5)c4n3)cc(C(F)(F)F)c2C1=O
